# Data reported in patent US20060069132A1, “Azolecarboxamide herbicides” (priority 2004, published 2006).
# Tests used:
# barnyardgrass [1] = assay: Test C flooded paddy test; assay type: in vivo, Echinochloa crus-galli
# Procedure, shortened: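 Postemergence sprays were applied to plants 2 to 18 cm tall (1- to 4-leaf stage); in the flooded paddy test, barnyardgrass was grown to the 2-leaf stage. After 12 to 14 days in a greenhouse, injury was visually rated against untreated controls on a 0–100 scale (100 = complete control).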
# wild oat = assay: Test B postemergence herbicide test; assay type: in vivo, Avena fatua; conditions: postemergence, visual rating, scale 0 (no effect) to 100 (complete control)
# Procedure, shortened: (§1)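 Read-out: visual comparison with controls, scored 0 to 100, where 100 means complete control and 0 no effect. Formulated chemicals were applied postemergence to plants 2–18 cm tall (1- to 4-leaf), or to flooded-paddy plants at the 2-leaf stage, then held 13 to 15 days under glass.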
# lambsquarters = assay: Test B pre-/postemergence herbicide test; assay type: in vivo, Chenopodium album; conditions: for Plant response rating, Lambsquarters: preemergence; for Lambsquarters plant response rating: postemergence, visual rating, scale 0 (no effect) to 100 (complete control)
# Procedure, shortened: (§2)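 Plants compared with untreated controls 13–15 days post-treatment and given a visual 0–100 injury score. Applications: preemergence to seeds; postemergence at 1- to 4-leaf (2–18 cm); paddy species flooded, 2-leaf stage. Vehicle non-phytotoxic, surfactant included.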
# large crabgrass = assay: Test B pre-/postemergence herbicide test; assay type: in vivo, Digitaria sanguinalis; conditions: for Plant response rating, Crabgrass, Large: preemergence; for Crabgrass, Large plant response rating: postemergence, visual rating, scale 0 (no effect) to 100 (complete control)
# Procedure, shortened: as §2
# ducksalad [2] = assay: Test B flooded paddy test; assay type: in vivo, Heteranthera limosa; conditions: 1000 g ai/ha, visual rating, scale 0 to 100 (0 no effect, 100 complete control), 13 to 15 days
# Procedure, shortened: as §1
# morningglory = assay: Test B pre-/postemergence herbicide test; assay type: in vivo, Ipomoea coccinea; conditions: for Plant response rating, Morningglory: preemergence; for Morningglory plant response rating: postemergence, visual rating, scale 0 (no effect) to 100 (complete control)
# Procedure, shortened: (§3)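 Pre: seeds sown, then sprayed. Post: 1–4-leaf plants (2–18 cm) sprayed at the same time. Paddy: flooded, treated at 2-leaf stage. Formulation: non-phytotoxic solvent with surfactant. Greenhouse 13–15 days; visual 0–100 score relative to controls.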
# giant foxtail = assay: Test B pre-/postemergence herbicide test; assay type: in vivo, Setaria faberi; conditions: for Plant response rating, Foxtail, Giant: preemergence; for Foxtail, Giant plant response rating: postemergence, visual rating, scale 0 (no effect) to 100 (complete control)
# Procedure, shortened: as §2
# rice [3] = assay: Test C flooded paddy test; assay type: in vivo, Oryza sativa
# Procedure, shortened: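 Injury scored visually against controls on a 0 (no effect) to 100 (complete control) scale, 12 to 14 days after treatment in greenhouse. Flooded paddy plants treated at 2-leaf stage; postemergence plants at 1- to 4-leaf stage, 2 to 18 cm tall.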
# ducksalad [4] = assay: Test C flooded paddy test; assay type: in vivo, Heteranthera limosa
# barnyardgrass [5] = assay: Test B flooded paddy test; assay type: in vivo, Echinochloa crus-galli; conditions: 1000 g ai/ha, visual rating, scale 0 to 100 (0 no effect, 100 complete control), 13 to 15 days
# Procedure, shortened: as §1
# Surinam grass = assay: Test B pre-/postemergence herbicide test; assay type: in vivo, Urochloa decumbens; conditions: for Plant response rating, Surinam Grass: preemergence; for Surinam Grass plant response rating: postemergence, visual rating, scale 0 (no effect) to 100 (complete control)
# Procedure, shortened: as §2
# [6] = test system: small flower umbrella sedge; assay: Test B flooded paddy test; assay type: in vivo, Cyperus difformis; conditions: 1000 g ai/ha, visual rating, scale 0 to 100 (0 no effect, 100 complete control), 13 to 15 days
# Procedure, shortened: as §1
# [7] = test system: smallflower umbrella sedge; assay: Test C flooded paddy test; assay type: in vivo, Cyperus difformis
# rice [8] = assay: Test B flooded paddy test; assay type: in vivo, Oryza sativa; conditions: 1000 g ai/ha, visual rating, scale 0 to 100 (0 no effect, 100 complete control), 13 to 15 days
# Procedure, shortened: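 Formulated test chemicals went onto postemergence plants measuring 2 to 18 cm, at one to four leaves. For the paddy assay, species had reached two leaves. Scoring took place 13–15 days later by eye, relative to untreated plants, using 0 for no effect up to 100 for full control.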
# corn = assay: Test B pre-/postemergence herbicide test; assay type: in vivo, Zea mays; conditions: for Plant response rating, Corn: preemergence; for Corn plant response rating: postemergence, visual rating, scale 0 (no effect) to 100 (complete control)
# Procedure, shortened: as §2
# barnyardgrass [9] = assay: Test B pre-/postemergence herbicide test; assay type: in vivo, Echinochloa crus-galli; conditions: for Plant response rating, Barnyardgrass: preemergence; for Barnyardgrass plant response rating: postemergence, visual rating, scale 0 (no effect) to 100 (complete control)
# Procedure, shortened: as §3
# blackgrass = assay: Test B postemergence herbicide test; assay type: in vivo, Alopecurus myosuroides; conditions: postemergence, visual rating, scale 0 (no effect) to 100 (complete control)
# Procedure, shortened: as §1
# rice [10] = assay: Test B pre-/postemergence herbicide test; assay type: in vivo, Oryza sativa; conditions: preemergence
# Procedure, shortened: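 Greenhouse pot assay with simultaneous preemergence (treated seed) and postemergence (2–18 cm seedlings) applications of surfactant-containing, non-phytotoxic solvent formulations. Response scored visually 13–15 days later on a 0–100 scale, 100 meaning complete control.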
# pigweed = assay: Test B pre-/postemergence herbicide test; assay type: in vivo, Amaranthus retroflexus; conditions: for Plant response rating, Pigweed: preemergence; for Pigweed plant response rating: postemergence, visual rating, scale 0 (no effect) to 100 (complete control)
# Procedure, shortened: as §2
# cocklebur = assay: Test B pre-/postemergence herbicide test; assay type: in vivo, Xanthium strumarium; conditions: for Plant response rating, Cocklebur: preemergence; for Cocklebur plant response rating: postemergence, visual rating, scale 0 (no effect) to 100 (complete control)
# Procedure, shortened: as §3
# wheat = assay: Test B postemergence herbicide test; assay type: in vivo, Triticum aestivum; set-up: key to Wheat plant response rating: 0 = no effect, 100 = complete control; conditions: postemergence, 500 g ai/ha; visual rating, scale 0 (no effect) to 100 (complete control)
# Procedure, shortened: as §1
# velvetleaf = assay: Test B pre-/postemergence herbicide test; assay type: in vivo, Abutilon theophrasti; conditions: for Plant response rating, Velvetleaf: preemergence; for Velvetleaf plant response rating: postemergence, visual rating, scale 0 (no effect) to 100 (complete control)
# Procedure, shortened: as §2
# [11] = 62 g ai/ha, scale 0 to 100 (0 no effect, 100 complete control)
# [12] = 250 g ai/ha, scale of 0 to 100, 0 is no effect, 100 is complete control
# [13] = 500 g ai/ha, visual rating after 12 to 14 days, scale 0 to 100 (0 no effect, 100 complete control)
# [14] = 500 g ai/ha, visual rating 0-100, 0 no effect, 100 complete control
# [15] = 125 g ai/ha, 0 to 100 scale, 0 is no effect, 100 is complete control
# [16] = 125 g ai/ha, scale 0 to 100 (0 no effect, 100 complete control)
structure (smiles),measurement,setting,value
CCOC(=O)c1cc(N(C(C)=O)C(=O)c2cc(C(C)(C)C)nn2CC)ccc1C [Compound 141],Barnyardgrass plant response rating,barnyardgrass [1]; [11],0
same,Barnyardgrass plant response rating,"barnyardgrass [1]; 125 g ai/ha, scale of 0 to 100, 0 is no effect, 100 is complete control",0
same,Barnyardgrass plant response rating,barnyardgrass [1]; [12],0
same,"Plant response rating, Barnyardgrass",barnyardgrass [1]; [13],10
same,"Oat, Wild plant response rating",wild oat; 125 g ai/ha,10
same,"Oat, Wild plant response rating",wild oat; 500 g ai/ha,20
same,"Plant response rating, Lambsquarters",lambsquarters; [14],0
same,Lambsquarters plant response rating,lambsquarters; 125 g ai/ha,60
same,Lambsquarters plant response rating,lambsquarters; 500 g ai/ha,90
same,"Plant response rating, Lambsquarters",lambsquarters; [15],0
same,"Plant response rating, Crabgrass, Large",large crabgrass; [14],20
same,"Crabgrass, Large plant response rating",large crabgrass; 125 g ai/ha,10
same,"Crabgrass, Large plant response rating",large crabgrass; 500 g ai/ha,30
same,"Plant response rating, Crabgrass, Large",large crabgrass; [15],10
same,Ducksalad plant response rating,ducksalad [2],80
same,"Plant response rating, Morningglory",morningglory; [14],30
same,Morningglory plant response rating,morningglory; 125 g ai/ha,20
same,Morningglory plant response rating,morningglory; 500 g ai/ha,30
same,"Plant response rating, Morningglory",morningglory; [15],20
same,"Plant response rating, Foxtail, Giant",giant foxtail; [14],20
same,"Foxtail, Giant plant response rating",giant foxtail; 125 g ai/ha,20
same,"Foxtail, Giant plant response rating",giant foxtail; 500 g ai/ha,20
same,"Plant response rating, Foxtail, Giant",giant foxtail; [15],10
same,Rice plant response rating,rice [3]; [11],0
same,Rice plant response rating,rice [3]; [16],0
same,Rice plant response rating,rice [3]; [12],0
same,"Plant response rating, Rice",rice [3]; [13],0
same,Ducksalad plant response rating,ducksalad [4]; [11],0
same,Ducksalad plant response rating,ducksalad [4]; [16],0
same,Ducksalad plant response rating,ducksalad [4]; [12],0
same,"Plant response rating, Ducksalad",ducksalad [4]; [13],0
same,Barnyardgrass plant response rating,barnyardgrass [5],10
same,"Plant response rating, Surinam Grass",Surinam grass; [14],10
same,Surinam Grass plant response rating,Surinam grass; 125 g ai/ha,10
same,Surinam Grass plant response rating,Surinam grass; 500 g ai/ha,20
same,"Plant response rating, Surinam Grass",Surinam grass; [15],0
same,"Sedge, Umbrella plant response rating",[6],90
same,"Sedge, Umbrella plant response rating",[7]; [11],0
same,"Sedge, Umbrella plant response rating",[7]; [16],0
same,"Sedge, Umbrella plant response rating",[7]; [12],30
same,"Plant response rating, Sedge, Umbrella",[7]; [13],45
same,Rice plant response rating,rice [8],0
same,"Plant response rating, Corn",corn; [14],0
same,Corn plant response rating,corn; 125 g ai/ha,0
same,Corn plant response rating,corn; 500 g ai/ha,10
same,"Plant response rating, Corn",corn; [15],0
same,"Plant response rating, Barnyardgrass",barnyardgrass [9]; [14],0
same,Barnyardgrass plant response rating,barnyardgrass [9]; 125 g ai/ha,0
same,Barnyardgrass plant response rating,barnyardgrass [9]; 500 g ai/ha,10
same,"Plant response rating, Barnyardgrass",barnyardgrass [9]; [15],0
same,Blackgrass plant response rating,blackgrass; 125 g ai/ha,20
same,Blackgrass plant response rating,blackgrass; 500 g ai/ha,20
same,"Plant response rating, Rice",rice [10]; [14],0
same,"Plant response rating, Rice",rice [10]; [15],0
same,"Plant response rating, Pigweed",pigweed; [14],30
same,Pigweed plant response rating,pigweed; 125 g ai/ha,30
same,Pigweed plant response rating,pigweed; 500 g ai/ha,80
same,"Plant response rating, Pigweed",pigweed; [15],0
same,"Plant response rating, Cocklebur",cocklebur; [14],10
same,Cocklebur plant response rating,cocklebur; 125 g ai/ha,0
same,Cocklebur plant response rating,cocklebur; 500 g ai/ha,20
same,"Plant response rating, Cocklebur",cocklebur; [15],0
same,Wheat plant response rating,wheat,20
same,"Plant response rating, Velvetleaf",velvetleaf; [14],20
same,Velvetleaf plant response rating,velvetleaf; 125 g ai/ha,20
same,Velvetleaf plant response rating,velvetleaf; 500 g ai/ha,80
same,"Plant response rating, Velvetleaf",velvetleaf; [15],0
